Experimental data reported in patent US20260306641A1, “HELICASE DEGRADERS” (priority 2023, published 2026).

What was measured:
[1] = test system: T1, human CMG helicase (hCMG); assay: hCMG helicase fork-unwinding (strand displacement) assay; assay type: biochemical; settings: for inhibition of hCMG helicase activity, SAR set: 500 μM compound
T1 construct: made in house; host or cells: High Five insect cells, baculovirus (11 viruses co-infected)
Procedure: The human CMG helicase was purified following the established and validated protocol of Hurwitz and colleagues(19,20), with minor modifications. A detailed description of the approach is shown here, to allow for comparisons to the methods described by the Hurwitz group.
High Five insect cells (2-3 million cells/ml, 1.5 L), were in cultured in a shaking incubator at 27° C. in suspension with ESF921 serum free medium (Expression Systems, CA; cat. #96-001-01), then co-infected for 60 hrs with 11 baculoviruses expressing human 6His2Flag-Cdc45, the human MCM hexamer (Mcm2, Mcm3, Mcm4, Mem5, Mcm6, Mcm7), and human GINS (GST-Sld5, Psf3, Psf2, and Psf1). Each virus was infected at an MOI of ~10 from individual virus stocks. Infected cells were harvested by centrifugation at 650×g for 5 min at 4° C., washed with cold PBS, frozen on dry ice, and stored at −80° C. until use. The cell pellet (~20 mL) was thawed on ice, resuspended in 45 ml Hypotonic Buffer [20 mM Hepes-NaOH (pH 7.5), 5 mM KCl, 1.5 mM MgCl2] with protease inhibitors (1 mM [COMPOUND LEFT OUT], 1 mM Benzamidine, 0.15 μM Aprotinin, 4 μM Leupeptin, and 1 μM Antipain), and kept on ice for 10 min before lysing by Dounce homogenization (tight fitting, 60 strokes). The cell extract was adjusted to 0.42 M potassium acetate and centrifuged at 43,000×g for 1 hr at 4° C. The cleared lysate was mixed with 0.75 ml glutathione beads (cat. #17-0756-05; GE Healthcare) pre-equilibrated with FEQ buffer [20 mM Hepes-NaOH (pH 7.5), 0.42 M potassium acetate, 5 mM KCl, 1.5 mM MgCl2] and incubated by rotation at 4° C. overnight. Following centrifugation at 290×g at 4° C., the bound glutathione beads were washed four times (15 min each wash) with 40 ml of FW buffer [20 mM Hepes-NaOH (pH 7.5), 0.42 M potassium acetate, 1 mM DTT, 1 mM EDTA, 0.01% NP40, 10% glycerol (vol/vol) with protease inhibitors as above] containing protease inhibitors (as above). Bound proteins were eluted at 4° C. three times (1 hr each elution) with 3.5 ml Q buffer [20 mM Hepes-NaOH (pH 7.5), 1 mM DTT, 1 mM EDTA, 0.01% NP40, 10% glycerol (vol/vol), and protease inhibitors as above] containing 0.15 M potassium acetate and 20 mM reduced glutathione. The eluted fractions were combined and applied to a HiTrap Q-Sepharose FF column (HiTrap Q FF 1 mL, cat. #17505301, Cytiva), pre-equilibrated 3× with 5 ml of Q buffer containing 0.15 M, 0.75 M, 0.15M potassium acetate, in sequence. The Q-Sepharose FF column was washed with 10 ml of FW buffer containing protease inhibitors (as above). The proteins were eluted with 10 ml of Q buffer containing 0.75 M potassium acetate. The eluted fraction was mixed with 0.15 ml of anti-Flag M2 affinity gel/beads and incubated while rotating at 4° C. overnight. After centrifugation at 290×g for 5 min at 4° C., the beads were washed three times with 10 ml PreScission buffer [50 mM Tris-HCl (pH 7.5), 0.15 M NaCl, 1 mM DTT, 1 mM EDTA] for 15 min at 4° C., and eluted at 4° C. three times (1 hr each elution) with 0.2 ml PreScission enzyme buffer containing 0.2 mg/ml 3×-Flag peptides. The combined eluates were incubated with 20 Units of PreScission Protease (GE Healthcare) and 0.1 mL glutathione beads for 4 hr at 4° C. The supernatant was layered onto a 15-40% glycerol gradient [25 mM Tris-HCl (pH 7.5), 50 mM NaCl, 1 mM DTT, 1 mM EDTA, 0.01% NP40, protease inhibitors as above] in a 5 mL ultra-centrifugation tube and centrifuged at 260,000×g for 14 hr at 4° C. Glycerol fractions (0.15 mL each fraction) were collected from bottom of tube and stored at −80° C. until use. Typically, fractions 6-9 contained complete hCMG (~750-800 kDa) and co-migrated with thyroglobulin.
Helicase fork-unwinding assays were performed at 37° C. for 1 hr in 20 μL reaction volumes using 2-4 μl of hCMG (~15-30 fmol), in a buffer consisting of 25 mM Hepes-NaOH (pH 7.5), 5 mM NaCl, 0.5 mM ATP, 10 mM magnesium acetate, 1 mM DTT, 0.1 mg/ml bovine serum albumin (BSA), and ~10 fmol of radiolabeled DNA forks (20). […]

[2] = test system: HaCaT cells; assay: BrdU labeling of DNA replication in synchronized HaCaT cells; assay type: cell-based, human; settings: treated at 18 hrs, analyzed 3 hrs later; CA1/novobiocin 15 μM, etoposide 5 μM
Procedure: Verification of synchronization and determination of drug effects was performed by measuring the incorporation of bromo-deoxyuridine (BrdU) into replicating foci within nuclei. At times indicated, cells were pulse-labeled with 15 μM BrdU for 30 min, fixed with 4% paraformaldehyde, and analyzed by standard immunofluorescent techniques(40,51) with an anti-BrdU monoclonal antibody (Roche, clone no. BMC9318, RRID:AB_2313622). The average counts of three fields of 100 or more cells were used to determine the percentages of BrdU-labeled nuclei, +/−1 s.d.

[3] = test system: MCM/CMG and replisome proteins in HaCaT cells; assay: Immunoblots of chromatin-bound or total proteins, synchronized HaCaT cells; assay type: cell-based, human; settings: S-phase cells; etoposide 5 μM

T1 sequence (P49736 whole entry): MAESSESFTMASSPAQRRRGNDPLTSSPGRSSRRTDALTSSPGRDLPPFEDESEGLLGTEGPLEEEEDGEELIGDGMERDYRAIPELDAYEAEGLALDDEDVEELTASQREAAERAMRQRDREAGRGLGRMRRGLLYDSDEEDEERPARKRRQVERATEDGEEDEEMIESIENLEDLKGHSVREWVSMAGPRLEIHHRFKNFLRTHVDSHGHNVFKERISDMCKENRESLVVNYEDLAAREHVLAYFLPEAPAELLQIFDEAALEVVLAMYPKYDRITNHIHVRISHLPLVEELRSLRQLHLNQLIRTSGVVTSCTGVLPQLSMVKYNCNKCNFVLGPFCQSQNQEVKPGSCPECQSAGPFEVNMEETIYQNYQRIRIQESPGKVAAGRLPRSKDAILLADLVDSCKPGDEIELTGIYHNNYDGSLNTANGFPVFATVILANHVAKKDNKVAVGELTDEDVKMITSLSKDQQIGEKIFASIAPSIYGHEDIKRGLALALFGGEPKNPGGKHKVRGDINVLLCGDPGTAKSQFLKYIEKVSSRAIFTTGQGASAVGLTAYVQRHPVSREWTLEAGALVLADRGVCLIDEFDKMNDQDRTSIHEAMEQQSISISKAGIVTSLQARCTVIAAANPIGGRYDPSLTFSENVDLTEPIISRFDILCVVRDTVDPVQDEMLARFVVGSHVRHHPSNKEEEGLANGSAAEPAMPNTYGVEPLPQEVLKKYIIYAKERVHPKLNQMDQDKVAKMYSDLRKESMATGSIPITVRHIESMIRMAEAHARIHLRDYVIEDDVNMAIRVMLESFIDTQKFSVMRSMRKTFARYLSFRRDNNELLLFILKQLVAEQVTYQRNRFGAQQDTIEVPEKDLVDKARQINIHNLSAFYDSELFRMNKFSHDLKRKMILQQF
T1 sequence (P25205 whole entry, further chain): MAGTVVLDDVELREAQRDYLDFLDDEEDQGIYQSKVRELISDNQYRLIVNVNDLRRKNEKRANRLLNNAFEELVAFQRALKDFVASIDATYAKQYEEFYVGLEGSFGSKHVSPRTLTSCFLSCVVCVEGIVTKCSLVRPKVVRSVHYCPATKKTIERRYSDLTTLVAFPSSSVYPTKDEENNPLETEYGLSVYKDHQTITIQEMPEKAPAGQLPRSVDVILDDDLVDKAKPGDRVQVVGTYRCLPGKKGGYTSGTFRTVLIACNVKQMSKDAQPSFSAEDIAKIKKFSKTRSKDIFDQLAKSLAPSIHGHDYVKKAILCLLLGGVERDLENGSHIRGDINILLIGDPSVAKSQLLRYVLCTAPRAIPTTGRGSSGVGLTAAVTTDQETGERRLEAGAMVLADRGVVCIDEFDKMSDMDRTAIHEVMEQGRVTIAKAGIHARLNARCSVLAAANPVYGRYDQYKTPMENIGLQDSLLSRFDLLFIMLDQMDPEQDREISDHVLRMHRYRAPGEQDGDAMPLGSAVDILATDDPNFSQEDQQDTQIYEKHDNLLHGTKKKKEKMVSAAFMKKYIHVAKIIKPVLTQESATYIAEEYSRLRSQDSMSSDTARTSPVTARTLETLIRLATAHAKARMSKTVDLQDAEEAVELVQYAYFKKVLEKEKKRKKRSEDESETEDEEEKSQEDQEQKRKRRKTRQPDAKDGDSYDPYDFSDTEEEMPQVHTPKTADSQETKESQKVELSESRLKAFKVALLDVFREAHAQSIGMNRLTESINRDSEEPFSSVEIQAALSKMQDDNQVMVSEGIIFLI
T1 sequence (P33991 whole entry, further chain): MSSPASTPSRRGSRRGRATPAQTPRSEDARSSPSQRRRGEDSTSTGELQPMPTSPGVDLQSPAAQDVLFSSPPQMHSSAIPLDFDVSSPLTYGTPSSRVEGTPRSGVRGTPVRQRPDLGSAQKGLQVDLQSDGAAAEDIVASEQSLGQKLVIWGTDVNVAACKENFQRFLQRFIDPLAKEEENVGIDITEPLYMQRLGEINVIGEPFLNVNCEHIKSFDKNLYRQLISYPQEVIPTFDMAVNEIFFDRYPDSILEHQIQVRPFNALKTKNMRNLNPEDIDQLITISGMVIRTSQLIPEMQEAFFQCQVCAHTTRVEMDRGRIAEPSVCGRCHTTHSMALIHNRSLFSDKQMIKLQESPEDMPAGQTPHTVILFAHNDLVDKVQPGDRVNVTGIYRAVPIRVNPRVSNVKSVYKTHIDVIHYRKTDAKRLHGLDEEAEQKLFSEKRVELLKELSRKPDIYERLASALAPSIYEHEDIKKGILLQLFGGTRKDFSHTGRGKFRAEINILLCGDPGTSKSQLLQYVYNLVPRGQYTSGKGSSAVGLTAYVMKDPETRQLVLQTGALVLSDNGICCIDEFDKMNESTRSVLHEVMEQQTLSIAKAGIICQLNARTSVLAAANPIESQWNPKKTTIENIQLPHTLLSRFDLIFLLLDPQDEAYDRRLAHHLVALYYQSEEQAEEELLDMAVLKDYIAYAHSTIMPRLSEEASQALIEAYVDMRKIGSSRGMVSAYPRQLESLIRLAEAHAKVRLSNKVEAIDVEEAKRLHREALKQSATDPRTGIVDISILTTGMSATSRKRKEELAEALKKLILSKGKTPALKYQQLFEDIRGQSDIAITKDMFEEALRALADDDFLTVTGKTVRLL
T1 sequence (P33992 whole entry, further chain): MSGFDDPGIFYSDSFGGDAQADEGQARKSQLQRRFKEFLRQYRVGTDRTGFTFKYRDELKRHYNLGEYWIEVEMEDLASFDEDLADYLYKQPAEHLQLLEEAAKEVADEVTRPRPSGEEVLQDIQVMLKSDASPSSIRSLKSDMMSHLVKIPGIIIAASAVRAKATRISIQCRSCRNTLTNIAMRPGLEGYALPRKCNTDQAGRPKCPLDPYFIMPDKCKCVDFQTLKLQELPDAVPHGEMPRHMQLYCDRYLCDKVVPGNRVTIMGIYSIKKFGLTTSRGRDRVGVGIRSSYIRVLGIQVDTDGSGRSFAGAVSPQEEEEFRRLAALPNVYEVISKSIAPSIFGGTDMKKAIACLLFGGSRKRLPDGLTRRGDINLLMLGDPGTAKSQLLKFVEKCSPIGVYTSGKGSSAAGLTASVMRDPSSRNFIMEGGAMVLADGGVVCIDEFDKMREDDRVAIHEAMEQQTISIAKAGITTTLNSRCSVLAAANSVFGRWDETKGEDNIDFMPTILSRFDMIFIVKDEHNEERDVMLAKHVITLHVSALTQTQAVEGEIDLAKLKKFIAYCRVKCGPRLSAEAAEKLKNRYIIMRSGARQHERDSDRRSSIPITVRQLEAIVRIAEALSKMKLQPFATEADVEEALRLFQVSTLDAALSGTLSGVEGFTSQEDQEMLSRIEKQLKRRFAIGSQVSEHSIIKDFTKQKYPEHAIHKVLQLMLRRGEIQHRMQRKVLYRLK
T1 sequence (Q14566 whole entry, further chain): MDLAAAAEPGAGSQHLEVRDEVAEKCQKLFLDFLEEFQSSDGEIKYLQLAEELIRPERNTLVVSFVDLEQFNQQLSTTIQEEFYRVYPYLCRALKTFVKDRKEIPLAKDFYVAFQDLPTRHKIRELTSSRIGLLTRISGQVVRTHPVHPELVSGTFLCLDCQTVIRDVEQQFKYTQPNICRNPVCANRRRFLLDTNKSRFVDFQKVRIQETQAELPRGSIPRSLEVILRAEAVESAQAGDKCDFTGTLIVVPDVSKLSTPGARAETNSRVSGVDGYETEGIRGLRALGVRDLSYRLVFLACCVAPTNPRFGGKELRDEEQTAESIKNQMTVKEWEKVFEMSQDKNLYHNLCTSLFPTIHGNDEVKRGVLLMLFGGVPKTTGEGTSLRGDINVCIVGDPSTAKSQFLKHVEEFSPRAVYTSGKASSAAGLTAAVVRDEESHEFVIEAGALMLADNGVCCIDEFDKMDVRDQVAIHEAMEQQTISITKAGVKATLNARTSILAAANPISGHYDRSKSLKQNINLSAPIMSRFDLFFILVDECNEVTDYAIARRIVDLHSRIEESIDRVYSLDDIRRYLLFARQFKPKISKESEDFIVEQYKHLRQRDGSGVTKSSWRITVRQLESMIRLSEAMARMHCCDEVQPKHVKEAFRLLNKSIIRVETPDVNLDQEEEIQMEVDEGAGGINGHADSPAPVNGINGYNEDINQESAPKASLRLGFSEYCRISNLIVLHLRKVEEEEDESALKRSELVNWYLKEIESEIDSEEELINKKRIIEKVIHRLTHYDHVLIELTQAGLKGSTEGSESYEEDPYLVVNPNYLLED
T1 sequence (P33993 whole entry, further chain): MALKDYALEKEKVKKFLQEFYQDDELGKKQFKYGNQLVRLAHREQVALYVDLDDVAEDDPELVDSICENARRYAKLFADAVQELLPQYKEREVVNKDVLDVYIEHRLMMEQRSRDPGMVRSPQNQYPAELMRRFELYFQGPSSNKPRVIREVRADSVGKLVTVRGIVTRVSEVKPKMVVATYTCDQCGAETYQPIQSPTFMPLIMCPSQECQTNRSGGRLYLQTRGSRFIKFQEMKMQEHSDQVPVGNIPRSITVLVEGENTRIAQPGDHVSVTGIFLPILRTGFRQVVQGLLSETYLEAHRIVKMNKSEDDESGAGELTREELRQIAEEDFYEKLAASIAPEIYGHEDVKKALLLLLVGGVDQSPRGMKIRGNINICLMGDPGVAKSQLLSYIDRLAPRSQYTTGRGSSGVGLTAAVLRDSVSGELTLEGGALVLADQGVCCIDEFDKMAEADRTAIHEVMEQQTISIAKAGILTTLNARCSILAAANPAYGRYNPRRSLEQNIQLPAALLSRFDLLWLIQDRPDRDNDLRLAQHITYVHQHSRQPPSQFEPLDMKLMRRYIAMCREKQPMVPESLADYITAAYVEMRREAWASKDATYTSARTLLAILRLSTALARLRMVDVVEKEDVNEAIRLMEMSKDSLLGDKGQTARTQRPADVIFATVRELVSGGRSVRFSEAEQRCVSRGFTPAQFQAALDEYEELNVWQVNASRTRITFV

O=C(O)c1cn(C2CC2)c2cc(N3CCNCC3)c(F)cc2c1=O [ciprofloxacin]
hCMG helicase inhibition by quinolones ([1]; 100 μM or 1000 μM): do not inhibit the purified hCMG helicase

CO[C@@H]1[C@@H](OC(=O)c2ccc(C)[nH]2)[C@@H](O)C(O)OC1(C)C (mixture of isomers) [MBC-D1, (3R,4S,5R)-5,6-Dihydroxy-3-methoxy-2,2-dimethyltetrahydro-2H-pyran-4-y 5-methyl-1H-pyrrole-2-carboxylate]
inhibition of hCMG helicase activity, SAR set [1]: only a small level of inhibition

(3R,4S,5R,6R)-5-Hydroxy-6-((4-hydroxy-3-(4-hydroxy-3-(3-methylbut-2-en-1-yl)benzamido)-8-methyl-2-oxo-2H-chromen-7-yl)oxy)-3-methoxy-2,2-dimethyltetrahydro-2H-pyran-4-yl [MBC]
inhibition of hCMG helicase activity, SAR set [1]: potently inhibit the hCMG

CO[C@@H]1[C@@H](O)[C@@H](O)[C@H](Oc2ccc3c(O)c(NC(=O)c4ccc(O)c(CC=C(C)C)c4)c(=O)oc3c2C)OC1(C)C [MBC-D3, N-(7-(((2R,3R,4S,5R)-3,4-Dihydroxy-5-methoxy-6,6-dimethyltetrahydro-2H-pyran-2-yl)oxy)-4-hydroxy-8-methyl-2-oxo-2H-chromen-3-yl)-4-hydroxy-3-(3-methylbut-2-en-1-yl)benzamide]
inhibition of hCMG helicase activity, SAR set [1]: this inhibition of the hCMG is diminished when the noviose sugar is added

COc1cc([C@@H]2c3cc4c(cc3[C@@H](O[C@@H]3O[C@@H]5CO[C@@H](C)O[C@H]5[C@H](O)[C@H]3O)[C@H]3COC(=O)[C@H]23)OCO4)cc(OC)c1O [etoposide]
hCMG helicase inhibition by etoposide ([1]; fork-unwinding): does not inhibit hCMG activity | hCMG helicase inhibition by etoposide ([1]; fork-unwinding, listed as Etoposide): no effect on hCMG helicase activity in vitro | DNA replication (BrdU), early S-phase treatment [2]: effectively suppressed DNA replication | DNA polymerases-a and -d on chromatin [3]: small change | replisome components or RPA on chromatin [3]: does not significantly diminish replisome components or RPA on chromatin

Nc1ncnc2c1ncn2[C@@H]1O[C@H](COP(=O)(O)OP(=O)(O)OP(O)(O)=S)[C@@H](O)[C@H]1O [ATP-γ-S]
suppression of fork-unwinding activity ([1]; 500 μM ATP, increasing ATP-gamma-S): dose-dependent suppression of fork-unwinding activity

CC(C)=CCc1cc(C(=O)Nc2c(O)c3ccc(O)c(C)c3oc2=O)ccc1O [MBC-D2, N-(4,7-Dihydroxy-8-methyl2-oxo-2H-chromen-3-yl)-4-hydroxy-3-(3-methylbut-2-en-1-yl)benzamide]
inhibition of hCMG helicase activity, SAR set [1]: somewhat effective at inhibiting the hCMG

CO[C@@H]1[C@@H](OC(=O)c2ccc(C)[nH]2)[C@@H](O)[C@H](Oc2ccc3c(O)c(NC(=O)c4ccc(O)c(CC=C(C)C)c4)c(=O)oc3c2C)OC1(C)C [MBC, (3R,4S,5R,6R)-5-Hydroxy-6-((4-hydroxy-3-(4-hydroxy-3-(3-methylbut-2-en-1-yl)benzamido)-8-methyl-2-oxo-2H-chromen-7-yl)oxy)-3-methoxy-2,2-dimethyltetrahydro-2H-pyran-4-yl]
IC50 ([1]; fork-unwinding, read-out: IC50 for hCMG helicase inhibition): ~59 µM
